Assay [1] deals with Escherichia coli (E. coli, I364). In kind it is cell-based. Particulars: I364, 18 h. The procedure: (§1) The minimum inhibition concentration (MIC) is used to determine the lowest concentration of antimicrobial agent needed to inhibit the visible growth of a bacteria strain after overnight incubation. All the bacteria strains were kindly provided by Dr Mark Webber of the Quadram Institute Bioscience (Norwich, UK; Escherichia coli (E. coli, […]), Pseudomonas aeruginosa (P. aeruginosa, PAO1) and Staphylococcus aureus (S. aureus, […]/NCTC8532)). Lysogen broth (LB broth) and agar were purchased from Sigma-Aldrich, Merck Life Science UK Limited, Dorset, UK. Fresh LB agar culture plates were prepared by pouring ≈10 mL of an autoclaved warm mixture of LB broth (2.5%) and bacteriological agar (1.5%) dissolved in dH2O. The agar plate was streaked and incubated overnight at 36 °C. A single bacterial colony was chosen and grown in 5 mL broth overnight under agitation at 36 °C. Subsequently, 50 μL of LB broth was added to wells 2-12 of a 96-well culture plate. AMPs were diluted to a concentration of 256 μg/mL, added to well 1, and diluted two-fold down to column 11. Column 12 was left empty, with no AMPs added. Then, 50 μL of the diluted overnight bacteria culture was added to the wells and incubated at 36 °C for 18 h to allow bacteria to grow. After incubation, the well plates were examined for bacterial growth and the lowest concentration of AMPs where clear liquid was observed was assumed to be the minimum inhibitory concentration. Three measurements for each peptide and against each type of bacteria were performed and the average values were obtained.

Assay [2] has as its system Staphylococcus aureus (S. aureus, F77/NCTC8532). In kind it is cell-based. Particulars: NCTC8532, 18 h. The procedure: as §1
The subject of assay [3] is E. coli (I364), P. aeruginosa (PAO1), S. aureus (F77). Type of assay: cell-based. To be noted: 18 h. The protocol: as §1
For assay [4], the system named is Pseudomonas aeruginosa (P. aeruginosa, PAO1). Type of assay: cell-based. To be noted: PAO1, 18 h. The protocol:
as §1

Assay [5] relates to Staphylococcus aureus (S. aureus, F77/NCTC8532). To be noted: comparison value for LL-37; cited from earlier work. An excerpt: Table 3 MIC values for the designed KR12 analogues compared to the LL-37 human cathelicidin. | column: MIC Values (μM) / S. aureus ([…])
The subject of assay [6] is E. coli (I364), P. aeruginosa (PAO1), S. aureus (F77). Particulars: mean of the literature values for LL-37; cited from earlier work. An excerpt:
Table 3 MIC values for the designed KR12 analogues compared to the LL-37 human cathelicidin. | column: MIC Values (μM) / Geometric Mean

Assay [7] concerns Pseudomonas aeruginosa (P. aeruginosa, PAO1). To be noted: comparison value for LL-37; cited from earlier work. From the text: Table 3 MIC values for the designed KR12 analogues compared to the LL-37 human cathelicidin. | column: MIC Values (μM) / P. aeruginosa (PAO1)
In assay [8] the test system is Escherichia coli (E. coli, I364). Particulars: comparison value for LL-37; cited from earlier work. An excerpt: Table 3 MIC values for the designed KR12 analogues compared to the LL-37 human cathelicidin. | column: MIC Values (μM) / E. coli ([…])

Like-named read-outs stand apart in the source and are kept apart here. No end group written: not given here.

Consider KIRVQRIKDFLR [KR12/32], for which, in assay [1], the “MIC Values E. coli (I364)” value is 4 µM. Besides, the “MIC Values S. aureus (F77)” value in assay [2] was found to be 32 µM. For the same substance, the “MIC Values Geometric Mean” value in assay [3] was found to be 13.33 µM. Moreover, in assay [4], the “MIC Values P. aeruginosa (PAO1)” value worked out at 4 µM.
Consider KIRVRIKFR [KR12/32-5911], for which, in assay [1], the “MIC Values E. coli (I364)” value came out at 4 µM. In assay [2], the “MIC Values S. aureus (F77)” value worked out at 2 µM. For the same substance, the “MIC Values Geometric Mean” value in assay [3] was 3.33 µM. Moreover, the “MIC Values P. aeruginosa (PAO1)” value in assay [4] is 4 µM.
KRIVQRIKDFLR [KR12, reference compound]: the “MIC Values E. coli (I364)” value in assay [1] is 2 µM. In assay [2], the “MIC Values S. aureus (F77)” value is 8 µM. Moreover, in assay [3], the “MIC Values Geometric Mean” value was 4.0 µM. The “MIC Values P. aeruginosa (PAO1)” value in assay [4] stood at 2 µM.
On to KRIVRIKFR [KR12-5911], for which the “MIC Values E. coli (I364)” value in assay [1] stood at 0.5 µM. The “MIC Values S. aureus (F77)” value in assay [2] worked out at 8 µM. The “MIC Values Geometric Mean” value in assay [3] is 3.5 µM. Further, in assay [4], the “MIC Values P. aeruginosa (PAO1)” value was 2 µM.
Turning to “LL-37: human cathelicidin, native peptide of KR12”, the “MIC Values S. aureus (F77)” value in assay [5] is 4 µM. In addition, in assay [6], the “MIC Values Geometric Mean” value was 6.67 µM. For the same substance, in assay [7], the “MIC Values P. aeruginosa (PAO1)” value is 8 µM. Also, the “MIC Values E. coli (I364)” value in assay [8] is 8 µM.

Source of the values: article PMC7503509, “Polydopamine Linking Substrate for AMPs: Characterisation and Stability on Ti6Al4V” (Materials, 2020).
